Test results as given in patent US20100105610A1, “Methods of Inhibiting Tumor Cell Aggressiveness Using the Microenvironment of Human Embryonic Stem Cells” (CHILDREN'S MEMORIAL HOSPITAL, priority 2006, published 2010).

Key:
[1] = tested on: MDA-MB-231 breast carcinoma cells; assay: In vivo tumor cell proliferation-to-apoptosis ratio (Ki67 / TUNEL), MDA-MB-231 tumors; conditions: MDA-MB-231 cells treated prior to injection into mouse
Text: (A) In vivo tumor formation in a mouse injected with MDA-MB-231 cells pre-exposed for 3 days to either a control matrix (Matrigel) or a matrix conditioned by hESCs (H9 CMTX) (n=10) (B) C81-61 cells, transfected with either an empty vector or a Nodal expression construct (n=5), and (C) MDA-MB-231 cells treated with either MO^Control or MO^Nodal (n=10). […] (D) The ratio of tumor cell proliferation to apoptosis for C8161 and MDA-MB-231 derived tumors, determined by immunohistochemical staining for Ki67 and terminal deoxynucleotidyl transferase biotin-dUTP nick-end labeling (TUNEL). Prior to injection into a mouse, C8161 and MDA-MB-231 cells were cultured for 3 days on control or hESC conditioned (H9 CMTX) matrices, or treated with MO^Nodal to knock down Nodal expression. […] (E) Immunohistochemical analysis of Ki67 expression (red/brown) and TUNEL staining in orthotopic melanoma (C8161) and breast carcinoma (MDA-MB-231) tumors. […] Proliferation is indicated by Ki67 staining and apoptotic nuclei were detected with confocal microscopy as red staining localized to the nuclei of apoptotic C8161 or MDA-MB-231 cells. […]
In order to establish a mechanism by which exposure to the hESC microenvironment abrogates tumorigenicity, the effects of this treatment on the in vivo tumor cell proliferation-to-apoptosis ratio were analyzed. […]

[2] = tested on: MDA-MB-231 cells; assay: In vitro proliferation assay (cell count), MDA-MB-231; assay type: cell-based, human; conditions: MDA-MB-231, relative to MO Control; 4 days after plating 15,000 cells
[3] = tested on: C8161 cells; assay: Anchorage independent growth / soft agar colony formation, C8161; assay type: cell-based, human; conditions: C8161 cells, soft agar, after 2 weeks
Protocol: An in vitro colony forming assay was used to analyze colony-forming ability of poorly aggressive C81-61 cells, aggressive C8161 cells, C8161 cells treated with MONodal and C8161 cells treated with MONodal and rescued with recombinant Nodal (100 ng/mL). The assay was conducted using 50,000 cells suspended in 0.35% agarose in RPMI containing 10% serum, which were plated into 6-well dishes on 0.5% agar in the same medium. Colonies grew, and pictures were taken at day 7. After 2 weeks, colonies were stained with Crystal Violet and counted.
Clonogenicity of cells are assessed as previously described. Hamburger, A. W., and Salmon, S. E., 1977, Science 197:461-463. Each parameter is tested in triplicate for clone formation in soft agar. Briefly, […] are plated in 60 mm Petri dishes in complete medium placed over the soft agar. On specific days after the cells are plated, phase contrast images of the colonies are taken using a Zeiss Axiovert 25 with an Hitachi HCV-20 color camera.
Anchorage independent growth assays were conducted as previously described. Topczewska et al., 2006, Nat. Med. 12: 925-932.

[4] = tested on: C8161 human cutaneous melanoma cells; assay: In vivo tumor formation, C8161 cells injected subcutaneously into nude mice; design: species or system mouse; conditions: 250,000 Morpholino-treated C8161 cells injected, vs control
Protocol: A microenvironment of human embryonic stem cells (H9 CMTX) was prepared as described above. C8161 human cutaneous melanoma cells were exposed to the H9 CMTX or Matrigel for 3 to 4 days prior to transplantation in a mouse model. Nude immunocompromised mice received an injection of the C8161 cells subcutaneously into the midscapular region (to mimic spontaneous metastatic dissemination found in human cancers). The animals were injected using a 25 or 27-gauge needle with 2.5×10^5 tumor cells/mouse in 0.05 ml RPMI media.
As a corollary to these findings, an orthotopic mouse model was used to examine the effect of Nodal inhibition on melanoma tumor formation. For the experimental tumourigenesis model, 5 week old nude mice (Harlan, Madison, Wis.) were injected subcutaneously with 250,000 C8161 cells, treated with control or anti-Nodal Morpholinos, in 50 μL of complete RPMI. Tumor measurements were taken on days 3, 7, 14 and 17 post-injection, and mice were sacrificed on day 17. For the orthotopic mouse tumor formation studies, statistical significance was determined using the Kruskal-Wallis One Way Analysis of Variance on Ranks, followed by Dunn's method. […]

MO^Nodal: antisense Morpholino to Nodal, 5′-AAGCAGCACCTCCAGCCCTTATATC-3′ (SEQ ID NO: 20) (all phosphorodiamidate morpholino (PMO); further chemistry not fully specified)
ratio of proliferation to apoptosis [1]: decreased | in vitro cell proliferation [2]: reduced proliferation | reduction of colony formation [3]: 57% | diminution of tumor incidence [4]: 30% | tumorigenicity [4]: significant reduction
